# Assay results reported in patent US20200239530A1, “COMPOUNDS AND METHODS OF MODULATING PROTEIN DEGRADATION” (Vividion Therapeutics, Inc., priority 2017, published 2020).
# Like-named read-outs stand apart in the source and are kept apart here.
# Assays:
# Format in all cases: binding
# Q8NF64 = target: T1, Q8NF64 (Homo sapiens, UniProt Q8NF64); assay: Cysteine liganding, probe competition (Table 2B); conditions: one line per cysteine site, read-out: KB02_500 uM_percent_inhibition
# T1 construct: 200 μL of lysate containing 5 mg/ml proteome was treated with 2 μL of 100× compound stock; endogenous in cells
# Source text: (§1) The following 96-well sample prep protocol was used for sample preparation.
# A6QL63 = target: T2, A6QL63 (Homo sapiens, UniProt A6QL63); assay: Competitive cysteine profiling, probe competition (Table 2B); conditions: read-out: KB02_100 uM_percent_inhibition
# T2 construct: 200 μL of lysate containing 5 mg/ml proteome was treated with 2 μL of 100× compound stock; endogenous in cells
# Source text: as §1
# Q8N961 = target: T3, Q8N961 (Homo sapiens, UniProt Q8N961); assay: as above
# T3 construct: Cells were resuspended in cold PBS on ice and sonicated with a probe sonicator to achieve lysis; endogenous in cells
# Source text: as §1
# Q9NR09 = target: T4, Q9NR09 (Homo sapiens, UniProt Q9NR09); assay: as above; conditions: 100 uM
# T4 construct: endogenous in cells
# Source text: as §1
# UniProt O00635 = target: T5, UniProt O00635 (Homo sapiens, UniProt O00635); assay: Cysteine liganding, probe competition
# T5 construct: 200 μL of lysate containing 5 mg/ml proteome was treated with 2 μL of 100× compound stock; endogenous in cells
# Source text: as §1
# UniProt Q15366 = target: T6, UniProt Q15366 (Homo sapiens, UniProt Q15366); assay: Cysteine liganding, probe competition; conditions: read-out: KB02_500 uM_percent_inhibition
# T6 construct: Cells were resuspended in cold PBS on ice and sonicated with a probe sonicator to achieve lysis; endogenous in cells
# Source text: as §1
# UniProt Q6Q0C0 = target: T7, UniProt Q6Q0C0 (Homo sapiens, UniProt Q6Q0C0); assay: Cysteine liganding, probe competition
# T7 construct: 200 μL of lysate containing 5 mg/ml proteome was treated with 2 μL of 100× compound stock; endogenous in cells
# T7 sequence (Q6Q0C0 1-670): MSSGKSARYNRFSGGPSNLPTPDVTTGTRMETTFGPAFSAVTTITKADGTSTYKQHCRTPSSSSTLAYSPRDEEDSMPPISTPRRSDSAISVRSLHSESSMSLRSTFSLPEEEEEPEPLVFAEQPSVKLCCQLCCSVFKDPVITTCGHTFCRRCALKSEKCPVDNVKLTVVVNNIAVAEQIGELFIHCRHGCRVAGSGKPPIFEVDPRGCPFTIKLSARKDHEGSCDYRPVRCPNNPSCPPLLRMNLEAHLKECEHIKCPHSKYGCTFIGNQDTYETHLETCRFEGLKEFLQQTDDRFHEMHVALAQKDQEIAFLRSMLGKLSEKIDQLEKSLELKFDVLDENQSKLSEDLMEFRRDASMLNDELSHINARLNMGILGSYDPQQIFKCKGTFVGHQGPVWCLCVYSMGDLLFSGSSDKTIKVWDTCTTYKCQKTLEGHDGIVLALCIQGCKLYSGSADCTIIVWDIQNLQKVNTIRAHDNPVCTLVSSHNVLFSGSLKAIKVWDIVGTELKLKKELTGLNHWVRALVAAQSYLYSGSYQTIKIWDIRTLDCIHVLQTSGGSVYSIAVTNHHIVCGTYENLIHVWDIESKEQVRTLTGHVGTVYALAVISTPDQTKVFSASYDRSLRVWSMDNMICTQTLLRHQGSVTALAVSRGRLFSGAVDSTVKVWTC
# Source text: as §1
# UniProt Q9C040 = target: T8, UniProt Q9C040 (Homo sapiens, UniProt Q9C040); assay: Cysteine liganding, probe competition
# T8 construct: 200 μL of lysate containing 5 mg/ml proteome was treated with 2 μL of 100× compound stock; endogenous in cells
# Source text: as §1
# Q9NXR7 = Q9NXR7 (Homo sapiens, UniProt Q9NXR7); assay: Competitive cysteine profiling, probe competition (Table 2B); set-up: endogenous in cells; conditions: read-out: KB02_500 uM_percent_inhibition
# Source text: as §1
# Q9C0D3 = target: T9, Q9C0D3 (Homo sapiens, UniProt Q9C0D3); assay: Cysteine liganding, probe competition (Table 2B); conditions: one line per cysteine site, read-out: KB05_100 uM_percent_inhibition
# T9 construct: endogenous in cells; whole-cell lysate
# Source text: as §1
# Q9ULT6 = target: T10, Q9ULT6 (Homo sapiens, UniProt Q9ULT6); assay: Cysteine liganding, probe competition (Table 2B); conditions: one line per cysteine site, read-out: KB05_500 uM_percent_inhibition
# T10 construct: 200 μL of lysate containing 5 mg/ml proteome was treated with 2 μL of 100× compound stock; endogenous in cells
# Source text: as §1
# Q969K4 = target: T11, Q969K4 (Homo sapiens, UniProt Q969K4); assay: Competitive cysteine profiling, probe competition (Table 2B); conditions: read-out: KB05_100 uM_percent_inhibition
# T11 construct: Cells were resuspended in cold PBS on ice and sonicated with a probe sonicator to achieve lysis; endogenous in cells
# Source text: as §1
# Q96Q27 = target: T12, Q96Q27 (Homo sapiens, UniProt Q96Q27); assay: as above; conditions: read-out: KB05_100 uM_percent_inhibition
# T12 construct: endogenous in cells
# Source text: as §1
# UniProt O60291 = target: T13, UniProt O60291 (Homo sapiens, UniProt O60291); assay: Cysteine liganding, probe competition
# T13 construct: Cells were resuspended in cold PBS on ice and sonicated with a probe sonicator to achieve lysis; endogenous in cells
# Source text: as §1
# UniProt Q13356 = target: T14, UniProt Q13356 (Homo sapiens, UniProt Q13356); assay: Cysteine liganding, probe competition; conditions: read-out: KB05_500 uM_percent_inhibition
# T14 construct: 200 μL of lysate containing 5 mg/ml proteome was treated with 2 μL of 100× compound stock; endogenous in cells
# Source text: as §1
# UniProt Q86YT6 = target: T15, UniProt Q86YT6 (Homo sapiens, UniProt Q86YT6); assay: Cysteine liganding, probe competition; conditions: read-out: percent inhibition
# T15 construct: Cells were resuspended in cold PBS on ice and sonicated with a probe sonicator to achieve lysis; endogenous in cells
# Source text: as §1
# UniProt Q8IUQ4 = target: T16, UniProt Q8IUQ4 (Homo sapiens, UniProt Q8IUQ4); assay: Cysteine liganding, probe competition
# T16 construct: 200 μL of lysate containing 5 mg/ml proteome was treated with 2 μL of 100× compound stock; endogenous in cells
# Source text: as §1
# UniProt Q96AX9 = target: T17, UniProt Q96AX9 (Homo sapiens, UniProt Q96AX9); assay: Cysteine liganding, probe competition
# T17 construct: Cells were resuspended in cold PBS on ice and sonicated with a probe sonicator to achieve lysis; endogenous in cells
# Source text: as §1
# Q99728 = Q99728 (Homo sapiens, UniProt Q99728); assay: Competitive cysteine profiling, probe competition (Table 2B); set-up: endogenous in cells; conditions: read-out: KB05_100 uM_percent_inhibition
# Source text: as §1
# Q9Y576 = target: T18, Q9Y576 (Homo sapiens, UniProt Q9Y576); assay: as above; conditions: 100 uM
# T18 construct: endogenous in cells
# Source text: as §1
# [1] = read-out: KB02_100 uM_percent_inhibition
# [2] = 100 uM, read-out: KB02_100 uM_percent_inhibition
# [3] = 500 uM, read-out: KB02_500 uM_percent_inhibition
compound,measurement,setting,value
COc1ccc2c(c1)CCCN2C(=O)CCl [KB02],inhibition at 500 µM,Q8NF64,46%
same,inhibition at 100 µM,A6QL63,9%
same,KB02_100 uM_percent_inhibition,Q8N961; 100 uM,60%
same,inhibition at 100 µM,Q8N961; [1],52%
same,KB02_100 uM_percent_inhibition,Q9NR09,24%
same,KB02_100 uM_percent_inhibition,UniProt O00635; 100 uM,7%
same,inhibition at 100 µM,UniProt O00635; [1],8%
same,inhibition at 500 µM,UniProt Q15366,45%
same,inhibition at 100 µM,UniProt Q6Q0C0; [2],3%
same,inhibition at 500 µM,UniProt Q6Q0C0; [3],47%
same,inhibition at 100 µM,UniProt Q6Q0C0; read-out: percent_inhibition,1%
same,inhibition at 100 µM,UniProt Q9C040; [2],20%
same,inhibition at 500 µM,UniProt Q9C040; [3],32%
same,inhibition at 500 µM,Q9NXR7,50%
C=CC(=O)N(c1ccccc1)c1ccc(Br)cc1 [KB05],inhibition at 100 µM,Q9C0D3,48%
same,inhibition at 500 µM,Q9ULT6,36%
same,inhibition at 100 µM,Q969K4,3%
same,inhibition at 100 µM,Q96Q27,36%
same,percent inhibition,UniProt O60291; 100 uM,20%
same,inhibition at 100 µM,UniProt O60291; read-out: percent inhibition,13%
same,inhibition at 500 µM,UniProt Q13356,69%
same,inhibition at 100 µM,UniProt Q86YT6,31%
same,percent_inhibition,UniProt Q8IUQ4; 100 uM,17%
same,inhibition at 100 µM,UniProt Q8IUQ4; read-out: percent_inhibition,9%
same,percent inhibition,UniProt Q96AX9; 100 uM,9%
same,inhibition at 100 µM,UniProt Q96AX9; read-out: percent inhibition,11%
same,inhibition at 100 µM,Q99728,31%
O=C(CCl)Nc1cc(C(F)(F)F)cc(C(F)(F)F)c1 [KBO3],KB03_100 uM_percent_inhibition,Q9Y576,51%
